Where two headings read alike, the source gives them in different places.
Tests used:
Test in all cases: SelectScreen Kinase Profiling, single point inhibition and IC50 for off-target kinases
Assay type in all cases: biochemical
off-target kinases [1] = molecular target: off-target kinases (Homo sapiens, UniProt O75716); conditions: STK16 (PKL12), LanthaScreen Binding
off-target kinases [2] = molecular target: T1, off-target kinases (Homo sapiens, UniProt P21709); conditions: EPHA1, ZLYTE, ATP Km app
T1 sequence (P21709 26-976): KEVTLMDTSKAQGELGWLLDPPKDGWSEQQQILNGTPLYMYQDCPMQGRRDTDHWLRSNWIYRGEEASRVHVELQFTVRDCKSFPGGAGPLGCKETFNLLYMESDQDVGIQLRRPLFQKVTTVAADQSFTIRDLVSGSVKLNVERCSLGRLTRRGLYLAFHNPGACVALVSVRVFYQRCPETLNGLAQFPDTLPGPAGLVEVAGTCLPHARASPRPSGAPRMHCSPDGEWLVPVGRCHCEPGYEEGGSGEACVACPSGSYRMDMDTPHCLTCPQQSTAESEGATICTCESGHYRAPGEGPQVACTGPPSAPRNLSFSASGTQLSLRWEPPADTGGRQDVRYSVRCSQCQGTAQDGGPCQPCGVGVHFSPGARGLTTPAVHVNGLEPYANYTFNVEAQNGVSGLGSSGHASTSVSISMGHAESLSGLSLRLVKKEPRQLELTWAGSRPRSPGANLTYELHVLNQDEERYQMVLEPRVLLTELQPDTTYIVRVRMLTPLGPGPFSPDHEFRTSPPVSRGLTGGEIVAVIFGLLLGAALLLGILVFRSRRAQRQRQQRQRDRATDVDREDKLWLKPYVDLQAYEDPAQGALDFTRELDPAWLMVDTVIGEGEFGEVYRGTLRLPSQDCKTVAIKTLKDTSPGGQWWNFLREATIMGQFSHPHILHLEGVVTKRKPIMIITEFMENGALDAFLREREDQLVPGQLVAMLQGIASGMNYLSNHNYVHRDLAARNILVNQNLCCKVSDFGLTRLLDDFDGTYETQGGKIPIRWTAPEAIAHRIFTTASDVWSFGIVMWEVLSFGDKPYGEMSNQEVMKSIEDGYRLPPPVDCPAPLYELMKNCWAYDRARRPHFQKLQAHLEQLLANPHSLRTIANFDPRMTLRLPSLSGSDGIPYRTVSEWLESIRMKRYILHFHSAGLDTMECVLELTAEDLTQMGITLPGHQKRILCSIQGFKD

off-target kinases [3] = molecular target: T2, off-target kinases (Homo sapiens, UniProt P35626); conditions: ADRBK2 (GRK3), ZLYTE, ATP Km app
T2 sequence (P35626 1-688): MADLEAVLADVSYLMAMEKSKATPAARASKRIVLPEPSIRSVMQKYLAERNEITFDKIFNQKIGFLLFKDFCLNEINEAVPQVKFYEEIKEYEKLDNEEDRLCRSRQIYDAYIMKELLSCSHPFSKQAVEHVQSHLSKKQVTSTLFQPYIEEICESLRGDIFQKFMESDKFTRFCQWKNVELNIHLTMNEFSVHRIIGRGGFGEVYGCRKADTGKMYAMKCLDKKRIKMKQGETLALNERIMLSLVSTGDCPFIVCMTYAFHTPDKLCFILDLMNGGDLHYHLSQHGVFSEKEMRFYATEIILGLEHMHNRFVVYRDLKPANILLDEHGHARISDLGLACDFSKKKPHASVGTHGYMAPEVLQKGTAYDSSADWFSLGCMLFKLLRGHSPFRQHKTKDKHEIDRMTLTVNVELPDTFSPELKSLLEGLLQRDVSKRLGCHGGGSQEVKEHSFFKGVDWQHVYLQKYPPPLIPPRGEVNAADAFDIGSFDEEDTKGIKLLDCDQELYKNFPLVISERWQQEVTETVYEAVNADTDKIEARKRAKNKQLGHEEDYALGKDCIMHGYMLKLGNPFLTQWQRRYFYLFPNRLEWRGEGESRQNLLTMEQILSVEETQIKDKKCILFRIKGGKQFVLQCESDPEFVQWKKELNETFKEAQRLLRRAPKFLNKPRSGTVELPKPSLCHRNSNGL

off-target kinases [4] = molecular target: off-target kinases (Homo sapiens, UniProt Q9HC98); conditions: NEK6, ZLYTE, ATP Km app
off-target kinases (Homo sapiens, UniProt Q9HC98), sequence (Q9HC98 whole entry): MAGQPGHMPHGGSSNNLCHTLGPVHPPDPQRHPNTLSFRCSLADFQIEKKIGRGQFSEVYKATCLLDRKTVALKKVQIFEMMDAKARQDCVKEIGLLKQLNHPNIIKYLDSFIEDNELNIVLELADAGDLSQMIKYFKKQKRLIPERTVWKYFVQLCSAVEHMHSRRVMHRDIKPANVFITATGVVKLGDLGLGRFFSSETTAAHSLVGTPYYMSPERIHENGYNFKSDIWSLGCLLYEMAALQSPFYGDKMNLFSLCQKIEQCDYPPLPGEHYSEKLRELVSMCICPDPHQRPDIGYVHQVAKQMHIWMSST

off-target kinases (Homo sapiens, UniProt O75716), sequence (O75716 whole entry): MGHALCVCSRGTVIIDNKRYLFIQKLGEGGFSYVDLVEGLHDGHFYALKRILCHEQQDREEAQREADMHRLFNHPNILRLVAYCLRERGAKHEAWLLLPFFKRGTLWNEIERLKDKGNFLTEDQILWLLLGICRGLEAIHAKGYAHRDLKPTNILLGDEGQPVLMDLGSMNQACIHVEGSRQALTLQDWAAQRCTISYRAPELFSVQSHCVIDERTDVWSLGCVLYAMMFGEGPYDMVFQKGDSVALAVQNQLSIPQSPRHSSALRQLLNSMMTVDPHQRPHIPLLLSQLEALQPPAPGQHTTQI

`N#Cc1cc(-c2ncnc(Nc3ccc(N4CCN(C5COC5)CC4)cc3)n2)ccc1OC1CCOCC1` [Compound 1, 5-(4-((4-(4-(oxetan-3-yl)piperazin-1-yl)phenyl)amino)-1,3,5-triazin-2-yl)-2-((tetrahydro-2H-pyran-4-yl)oxy)benzonitrile] gave an inhibition (off-target kinases [1]; read-out: % Inhibition 1) of 95%, an inhibition (off-target kinases [1]; read-out: % Inhibition 2) of 93% and an inhibition (off-target kinases [1]; read-out: % Inhibition Avg) of 94%. The inhibition (off-target kinases [2]; read-out: % Inhibition 1) was 29%, the inhibition (off-target kinases [2]; read-out: % Inhibition 2) was 24% and the inhibition (off-target kinases [2]; read-out: % Inhibition Avg) was 27%. The inhibition (off-target kinases [3]; read-out: % Inhibition 1) was 6%, the inhibition (off-target kinases [3]; read-out: % Inhibition 2) was 4% and the inhibition (off-target kinases [3]; read-out: % Inhibition Avg) was 5%. For the same molecule, the inhibition (off-target kinases [4]; read-out: % Inhibition 1) was 12%, the inhibition (off-target kinases [4]; read-out: % Inhibition 2) was 6% and the inhibition (off-target kinases [4]; read-out: % Inhibition Avg) was 9%.

From patent US11572590B2, “Methods for evaluating tumor cell spheroids using 3D microfluidic cell culture device” (Dana-Farber Cancer Institute, Inc., priority 2017, dated 2023)
